Reference: US20100041900A1, “Isolation of lactam compound from adlay bran and its use on anti-proliferative cancer cells” (KUANG TA FOODS CO., LTD, priority 2008, published 2010)
Converted amounts (≈) assume the structure as drawn. Where two headings read alike, the source gives them in different places.

Columns and labels:
Type in all cases: cell-based
[1] = tested on: HT-29 (human colon carcinoma); test: MTT assay, growth inhibition of HT-29 cells; settings: 48 hours incubation, mean ± SD of three replicates; for IC50: Homo sapiens, HT-29, 48 h, read-out: IC50 (concentration required for 50% growth inhibition of cancer cells), HT-29
Method: (§1) The cell lines A549 (human lung cancer), HT-29 (human colon carcinoma), and COLO 205 (human colon carcinoma) were obtained from the American Type Culture Collection (ATCC) (Rockville, Md.). These cell lines were maintained in DMEM containing 10% heat-inactivated fetal bovine serum, 100 units/mL of penicillin and 100 μg/mL of streptomycin, and were kept at 37° C. in a 5% CO2 incubator.
(§2) MTT assay was performed as described by Hansen et al. (Hansen et al., J. Immunol. Methods 119, 203-210, 1989). A549 (1.5×10^3 cells/well), HT-29 (2×10^3 cells/well), and COLO 205 (3×10^3 cells/well) were seeded in 96-well plates and grown overnight. Cells were then incubated in 10% FBS medium containing different amounts of adlay bran subfractions for 48 hours. At the end of incubation, media were replaced with 100 μL of reagent (MTT, 1 mg/mL) and incubated in a 5% CO2 incubator at 37° C. for another 2 h. The medium was then discarded and 100 μL of DMSO was added to each well. The absorbance was measured at 570 nm by scanning with a micro-plate reader (Molecular Devices, Calif.). Each sample was analyzed six times, and the values were averaged. For the determination of IC50 (the concentration of each substance required to inhibit cell proliferation by 50%), each sample was measured at five different concentrations by the MTT test. […] The IC50 values of each sample were collected from three replicates, and then mean±standard deviation values were obtained for the results of the IC50 assay.

[2] = tested on: A549 (human lung cancer); test: MTT assay, growth inhibition of A549 cells; settings: for IC50: Homo sapiens
Method: as §1, §2

[3] = tested on: COLO 205 (human colon carcinoma); test: MTT assay, growth inhibition of COLO 205 cells; settings: 48 hours incubation, mean ± SD of three replicates; for IC50: Homo sapiens, COLO 205, 48 h, read-out: IC50 (concentration required for 50% growth inhibition of cancer cells), COLO 205
Method: as §1, §2

[4] = A549, 48 h, A549 cells, 48 hours incubation, MTT, mean ± SD of three replicates, read-out: IC50 (concentration required for 50% growth inhibition of cancer cells), A549
[5] = A549, summary range over all five compounds and all three cell lines A549, HT-29, COLO 205, read-out: IC50 values against A549, HT-29 and COLO 205 cells (overall range)

| Compound | IC50 (concentration required for 50% growth inhibition of cancer cells), HT-29 [1] | IC50 (concentration required for 50% growth inhibition of cancer cells), A549 ([2]; A549 cells, 48 hours incubation, MTT, mean ± SD of three replicates) | IC50 (concentration required for 50% growth inhibition of cancer cells), COLO 205 [3] | IC50 [1] | IC50 [2, 4] | IC50 [2, 5] | IC50 [3] |
| --- | --- | --- | --- | --- | --- | --- | --- |
| CC1OC(=O)C[C@@]12C(=O)Nc1ccccc12 (stereo partly shown) [Compound 3, coixspirolactam C] | 37.55 ± 3.08 µg/mL | 31.75 ± 2.58 µg/mL | 48.12 ± 4.15 µg/mL |  |  |  |  |
| COC(=O)CC1(O)C(=O)Nc2ccccc21 (stereo not shown) [Compound 5, methyl dioxindole-3-acetate] |  |  |  | 48.9 ± 3.83 µg/mL (≈ 221 µM) | 42.6 ± 2.31 µg/mL (≈ 193 µM) | 28.6 to 72.6 µg/mL (≈ 129 to 328 µM) | 45.5 ± 6.42 µg/mL (≈ 206 µM) |
| CC1OC(=O)C[C@@]12C(=O)Nc1ccccc12 (stereo partly shown) [Compound 2, coixspirolactam B] |  |  |  | 32.7 ± 2.29 µg/mL (≈ 151 µM) | 28.6 ± 2.04 µg/mL (≈ 132 µM) | 28.6 to 72.6 µg/mL (≈ 132 to 334 µM) | 41.3 ± 3.52 µg/mL (≈ 190 µM) |
| COC(=O)[C@H]1Cc2ccccc2NC1=O [Compound 4, coixlactam] |  |  |  | 52.6 ± 2.64 µg/mL (≈ 256 µM) | 65 ± 3.32 µg/mL (≈ 317 µM) | 28.6 to 72.6 µg/mL (≈ 139 to 354 µM) | 72.6 ± 5.31 µg/mL (≈ 354 µM) |
| O=C1C[C@]2(CO1)C(=O)Nc1ccccc12 [Compound 1, coixspirolactam A] |  |  |  | 34.4 ± 3.53 µg/mL (≈ 169 µM) | 37.1 ± 1.93 µg/mL (≈ 183 µM) | 28.6 to 72.6 µg/mL (≈ 141 to 357 µM) | 35.9 ± 4.65 µg/mL (≈ 177 µM) |
